Our source for the IC50 values is patent US20240246918A1, “COMPOUNDS AND COMPOSITIONS AS EIF4E INHIBITORS AND THE USES THEREOF” (Ribometrix, Inc., priority 2022, published 2024).

One assay deals with T1, human eIF4E protein (Homo sapiens, UniProt P06730).
T1 construct: purchased Novus NBP-45314
Kind of assay: Biochemical competitive binding assay (TR-FRET competition, EDA-m7GDP-ATTO-647N probe). The following applies: read-out: hEIF4E TR-FRET IC50. The gist of the method:
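His-tagged human eIF4E (4 nM) was preincubated with Eu-anti-His antibody (2.5 nM) and added to compound (11-point, 4-fold dilutions) for 15 min. Then 5 nM EDA-m7GDP-ATTO-647N was added for 15 min, in HEPES pH 7.5, 100 mM KCl. The 665/620 TR-FRET ratio was normalized to controls, and IC50 was taken from 4-parameter fits.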
(In general: Time-resolved FRET reads energy transfer from a long-lived donor to a nearby acceptor.)

In assay [1] the test system is COLO 205 colorectal tumor cells. Kind of assay: Tumor cell viability inhibition assay (CellTiter-Glo 2.0, 72 hours). It counts as cell-based. Conditions: Homo sapiens, COLO 205, 72 h, COLO 205 cell viability. The gist of the method:
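COLO 205 cells (1500/well, RPMI-1640 + 10% FBS) exposed for 72 h to an 11-point, 4-fold dilution series; cellular ATP read by CellTiter-Glo 2.0 luminescence. Data normalized to DMSO and maximum-inhibition controls; IC50 from 4-parameter curve fit.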

Assay [2] deals with cyclin D1 protein levels in COLO 205 cells. Kind of assay: Cyclin D1 cellular inhibition assay (HTRF, 6 hours). The following applies: Homo sapiens, COLO 205, 6 h, 6 hours of compound treatment, Cyclin D1 protein levels by HTRF, read-out: COLO 205 6 h Cyclin D1 TR-FRET IC50. It counts as cell-based. How it is done:
The effect of compound treatment on cyclin D1 protein levels in COLO 205 cells was assessed, as follows. Test compound plates were prepared with a Tecan D300e Digital Dispenser as 11-point concentration-response curves with a final DMSO concentration of 1%. COLO 205 (ATCC, CCL-222) colorectal tumor cells were seeded to assay-ready plates in RPMI-1640 medium supplemented with 10% FBS at 20,000 cells in a volume of 6 microliters per well. After 6 hours of compound treatment, cells were lysed and Cyclin D1 protein levels were assessed by an HTRF assay (PerkinElmer #64CYCD1ITPEG), according to the manufacturer's protocol. Time-resolved fluorescence was measured using a Clariostar Plus microplate reader (BMG Labtech) or equivalent. After normalization to the average of DMSO control and maximum inhibition control wells, concentration-response data were plotted and standard 4-parameter curve fitting (GraphPad Prism v9.4.1) was utilized to determine IC50 values.

Assay [3] concerns cap-dependent translation in Flp-In-293 reporter cells. Kind of assay: Cellular cap-dependent translation inhibition assay (dual luciferase assay, DLA; Fluc/Rluc ratio, 24 hours). It counts as cell-based. The following applies: Homo sapiens, Flp-In-293, 24 h, dual luciferase assay, Flp-In-293 reporter cells, 24 hours, Fluc/Rluc ratio; read-out: DLA 205 IC50.

T1 sequence (P06730 whole entry): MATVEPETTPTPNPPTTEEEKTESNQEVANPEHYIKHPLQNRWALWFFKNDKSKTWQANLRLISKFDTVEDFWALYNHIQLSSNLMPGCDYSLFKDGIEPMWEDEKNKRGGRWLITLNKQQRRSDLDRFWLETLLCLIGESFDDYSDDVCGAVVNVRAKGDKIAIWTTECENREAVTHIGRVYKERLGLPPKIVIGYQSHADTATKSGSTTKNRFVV

Regarding `Cc1cc(-c2cc(Cl)ccc2OCCn2c(C)nc3c(c2=O)C[C@H](N(C)C[C@H]2C[C@](C)(O)C2)CC3)c2scc(C(=O)O)c2n1` (relative stereo) [Compound 210], the figures for the IC50 (on human eIF4E protein; in assay [1]; in assay [2]) were below 0.1 µM, above 20 µM and above 20 µM, respectively.

With `Cc1cc(-c2cc(Cl)ccc2OCCn2c(C)nc3c(c2=O)C[C@H](N2CCC[C@@]4(C2)CC4(F)F)CC3)c2scc(C(=O)O)c2n1` (single isomer, unassigned) [Compound 139], the IC50 on human eIF4E protein is below 0.1 µM; in assay [1], below 5 µM; in assay [2], below 5 µM.

For `Cc1cc(-c2cc(Cl)ccc2OCCn2c(C)nc3c(c2=O)C[C@@H](N2CCC[C@]4(C2)CC4(F)F)CC3)c2scc(C(=O)O)c2n1` (single isomer, unassigned) [Compound 140], the IC50 at human eIF4E protein is below 0.1 µM; in assay [1], below 5 µM; in assay [2], below 5 µM.

Regarding `Cc1cc(-c2cc(Cl)ccc2OCCn2c(C)nc3c(c2=O)C[C@@H](N2CCC[C@@]4(C2)CC4(F)F)CC3)c2scc(C(=O)O)c2n1` (single isomer, unassigned) [Compound 141], the IC50 on human eIF4E protein was below 0.1 µM; in assay [1], below 5 µM; in assay [2], below 5 µM.

As to `Cc1cc(-c2cc(Cl)ccc2OCCn2c(C)nc3c(c2=O)C[C@H](N2C[C@@H]4CC(F)(F)[C@@H]4C2)CC3)c2scc(C(=O)O)c2n1` (single isomer, unassigned) [Compound 146], the IC50 at human eIF4E protein is below 0.1 µM; in assay [1] it was below 5 µM; in assay [2], below 5 µM.

For the compound `Cc1cc(-c2cc(Cl)ccc2OCCn2c(C)nc3c(c2=O)C[C@H](N2C[C@H]4CC(F)(F)[C@H]4C2)CC3)c2scc(C(=O)O)c2n1` (single isomer, unassigned) [Compound 147], the IC50 at human eIF4E protein is below 0.1 µM; in assay [1] it was below 5 µM; in assay [2], below 5 µM.

Consider `Cc1cc(-c2cc(Cl)ccc2OCCn2c(C)nc3c(c2=O)C[C@@H](N2C[C@H]4CC(F)(F)[C@H]4C2)CC3)c2scc(C(=O)O)c2n1` (single isomer, unassigned) [Compound 148], for which the IC50 on human eIF4E protein was below 0.1 µM; in assay [1], below 5 µM; in assay [2], below 5 µM.

On to `Cc1cc(-c2cc(Cl)ccc2OCCn2c(C)nc3c(c2=O)C[C@@H](N2C[C@@H]4CC(F)(F)[C@@H]4C2)CC3)c2scc(C(=O)O)c2n1` (single isomer, unassigned) [Compound 149], for which the IC50 at human eIF4E protein is below 0.1 µM; in assay [1] it was below 5 µM; in assay [2], below 5 µM.

As for `Cc1cc(-c2cc(Cl)ccc2OCCn2c(C)nc3c(c2=O)C[C@H](N2C[C@H]4CCC(F)(F)[C@H]4C2)CC3)c2scc(C(=O)O)c2n1` (single isomer, unassigned) [Compound 166], the IC50 was below 0.1 µM on human eIF4E protein, below 5 µM in assay [1] and below 5 µM in assay [2].

Regarding `Cc1cc(-c2cc(Cl)ccc2OCCn2c(C)nc3c(c2=O)C[C@H](N2C[C@@H]4CCC(F)(F)[C@@H]4C2)CC3)c2scc(C(=O)O)c2n1` (single isomer, unassigned) [Compound 167], the IC50 on human eIF4E protein was below 0.1 µM; in assay [1] it was below 5 µM; in assay [2], below 5 µM.

`Cc1cc(-c2cc(Cl)ccc2OCCn2c(C)nc3c(c2=O)C[C@@H](N2C[C@H]4CCC(F)(F)[C@H]4C2)CC3)c2scc(C(=O)O)c2n1` (single isomer, unassigned) [Compound 168]: the IC50 on human eIF4E protein is below 0.1 µM; in assay [1], below 5 µM; in assay [2], below 5 µM.

As to `Cc1cc(-c2cc(Cl)ccc2OCCn2c(C)nc3c(c2=O)C[C@@H](N2C[C@@H]4CCC(F)(F)[C@@H]4C2)CC3)c2scc(C(=O)O)c2n1` (single isomer, unassigned) [Compound 169], the IC50 on human eIF4E protein was below 0.1 µM; in assay [1], below 5 µM; in assay [2] it was below 5 µM.

Turning to `Cc1cc(-c2cc(Cl)ccc2OCCn2c(C)nc3c(c2=O)CC(N(C)C2CCN(CC(F)(F)F)CC2)CC3)c2scc(C(=O)O)c2n1` (stereo not drawn) [Compound 276], the IC50 on human eIF4E protein is below 0.1 µM; in assay [3] it was below 1 µM; in assay [1], below 5 µM.

As to `Cc1cc(-c2cc(Cl)ccc2OCCn2c(C)nc3c(c2=O)CC(N(C)C2CC2)CC3)c2c(n1)c(C(=O)O)cn2C` (stereo not drawn) [Compound 277], the IC50 on human eIF4E protein was 0.5 to 5 µM; in assay [3], above 5 µM; in assay [1], above 20 µM.

In the case of `Cc1cc(-c2cc(Cl)ccc2OCCn2c(C)nc3c(c2=O)CC(N2CCN(CC(F)(F)F)CC2)CC3)c2scc(C(=O)O)c2n1` (stereo not drawn) [Compound 278], the IC50 is below 0.1 µM at human eIF4E protein, below 1 µM in assay [3] and below 5 µM in assay [1].

`Cc1cc(-c2cc(Cl)ccc2OCCn2c(C)nc3c(c2=O)CC(N2CC(F)(F)C4(CC4)C2)CC3)c2scc(C(=O)O)c2n1` (stereo not drawn) [Compound 279]: the IC50 on human eIF4E protein was below 0.1 µM; in assay [3], below 1 µM; in assay [1], below 5 µM.

As to `Cc1cc(-c2cc(Cl)ccc2OCCn2c(C)nc3c(c2=O)CC(N(C)C24CC(C)(C2)C4(F)F)CC3)c2scc(C(=O)NS(C)(=O)=O)c2n1` (stereo not drawn) [Compound 288], the IC50 at human eIF4E protein is below 0.1 µM; in assay [3] it was 1 to 5 µM; in assay [1] it was 5 to 20 µM.

Consider `Cc1nc2c(c(=O)n1CC#Cc1ccc(Cl)cc1-c1ccnc3c(C(=O)O)csc13)CC(N(C)C1CC1)CC2` (stereo not drawn) [Compound 290], for which the IC50 is below 0.1 µM at human eIF4E protein, below 1 µM in assay [3] and below 5 µM in assay [1].

Turning to `Cc1cc(-c2cc(Cl)ccc2OCCn2c(C)nc3c(c2=O)CC(N(C2CCC2)C2CC2)CC3)c2scc(C(=O)NS(C)(=O)=O)c2n1` (stereo not drawn) [Compound 317], the figures for the IC50 (on human eIF4E protein; in assay [3]; in assay [1]) were below 0.1 µM, below 1 µM and below 5 µM, respectively.

With `Cc1cc(-c2cc(Cl)ccc2OCCn2c(C)nc3c(c2=O)CC(N(C)C24CC(C)(C2)C4(F)F)CC3)c2scc(C(=O)O)c2n1` (stereo not drawn) [Compound 318], the IC50 on human eIF4E protein was below 0.1 µM; in assay [3] it was 1 to 5 µM; in assay [1], 5 to 20 µM.

As to `Cc1nc2c(c(=O)n1CC#Cc1ccc(Cl)cc1-c1ccnc3c(C(=O)NS(C)(=O)=O)csc13)CC(N1CC(F)C1)CC2` (stereo not drawn) [Compound 325], the results for the IC50 (on human eIF4E protein; in assay [3]; in assay [1]) were below 0.1 µM, below 1 µM and below 5 µM, respectively.

Regarding `COC(=O)c1csc2c(-c3cc(Cl)ccc3OCCn3c(C)nc4c(c3=O)CC(N(C3CC3)C3CC3)CC4)cc(C)nc12` (stereo not drawn) [Compound 339], the IC50 was 0.5 to 5 µM at human eIF4E protein, above 5 µM in assay [3] and 5 to 20 µM in assay [1].

As to `Cc1nc2c(c(=O)n1CC#Cc1ccc(Cl)cc1-c1ccnc3c(C(=O)O)csc13)CC(N(C)C)CC2` (stereo not drawn) [Compound 350], the IC50 at human eIF4E protein is 0.5 to 5 µM; in assay [3], above 5 µM; in assay [1], above 20 µM.

Take `Cc1nc2c(c(=O)n1CC#Cc1ccc(Cl)cc1-c1ccnc3c(C(=O)O)csc13)CC(N(C)Cc1ccncc1)CC2` (stereo not drawn) [Compound 351]: the IC50 on human eIF4E protein was below 0.1 µM; in assay [3] it was below 1 µM; in assay [1] it was below 5 µM.

On to `Cc1cc(-c2cc(Cl)ccc2OCCn2c(C)nc3c(c2=O)CC(N(C2CC2)C2CC2)CC3)c2scc(C(=O)O)c2n1` (stereo not drawn) [Compound 352], for which the IC50 was below 0.1 µM on human eIF4E protein, below 1 µM in assay [3] and below 5 µM in assay [1].

Take `COC(=O)c1csc2c(-c3cc(Cl)ccc3OCCn3c(C)nc4c(c3=O)CC(N(CC(F)(F)F)C3CC3)CC4)cc(C)nc12` (stereo not drawn) [Compound 353]: the IC50 is 0.5 to 5 µM at human eIF4E protein, above 5 µM in assay [3] and above 20 µM in assay [1].

In the case of `Cc1nc2c(c(=O)n1CC#Cc1ccc(Cl)cc1-c1ccnc3c(C(=O)O)csc13)CC(N1CC(F)C1)CC2` (stereo not drawn) [Compound 355], the IC50 is below 0.1 µM at human eIF4E protein, below 1 µM in assay [3] and 5 to 20 µM in assay [1].

In the case of `Cc1cc(-c2cc(Cl)ccc2OCCn2c(C)nc3c(c2=O)CC(N2CC(F)C2)CC3)c2scc(C(=O)O)c2n1` (stereo not drawn) [Compound 356], the IC50 is below 0.1 µM at human eIF4E protein, below 1 µM in assay [3] and below 5 µM in assay [1].

Turning to `Cc1nc2c(c(=O)n1CC#Cc1ccc(Cl)cc1-c1ccnc3c(C(=O)O)csc13)CC(N1CCCCC1)CC2` (stereo not drawn) [Compound 357], the IC50 on human eIF4E protein was below 0.1 µM; in assay [3] it was below 1 µM; in assay [1], below 5 µM.

As for `COC(=O)c1csc2c(-c3cc(Cl)ccc3OCCn3c(C)nc4c(c3=O)CC(N(C)C3CC3)CC4)cc(C)nc12` (stereo not drawn) [Compound 358], the IC50 at human eIF4E protein fell in the range of 0.5 to 5 µM; in assay [3] it was 1 to 5 µM; in assay [1], 5 to 20 µM.

By IC50 is commonly meant the concentration at which inhibition is half-maximal.
